The source of these data is EP4763839A1 (Pamplona Therapeutics (Shenzhen) Co., Ltd., priority 2023, dated 2025).

Counter-ions that a name gives are not always drawn. Like-named read-outs stand apart in the source and are kept apart here.

In this test the target is T1, IRAK4 (Homo sapiens, UniProt Q9NWZ3).
T1 sequence (Q9NWZ3 1-460): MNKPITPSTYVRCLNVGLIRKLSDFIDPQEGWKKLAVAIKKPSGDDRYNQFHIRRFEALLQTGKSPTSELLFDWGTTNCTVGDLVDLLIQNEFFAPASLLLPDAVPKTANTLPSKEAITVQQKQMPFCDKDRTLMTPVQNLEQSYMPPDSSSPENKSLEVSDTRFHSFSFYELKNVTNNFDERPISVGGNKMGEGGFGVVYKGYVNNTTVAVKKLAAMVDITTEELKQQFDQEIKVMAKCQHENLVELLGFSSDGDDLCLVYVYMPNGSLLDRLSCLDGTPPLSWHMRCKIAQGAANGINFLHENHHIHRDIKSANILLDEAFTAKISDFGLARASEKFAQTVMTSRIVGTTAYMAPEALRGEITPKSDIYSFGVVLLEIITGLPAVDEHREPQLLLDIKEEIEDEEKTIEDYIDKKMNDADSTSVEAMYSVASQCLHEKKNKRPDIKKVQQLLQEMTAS
As to the kind of experiment: Degradation of IRAK4 in THP1 cells, Western blot. Type of test: cell-based. Set-up: Degradation of IRAK4 in THP1 by compound; host or cells: THP-1. How it is done:
After 24 hours of incubation, the cells were collected into 1.5 mL centrifuge tubes and centrifuged at 1,000 rpm for 5 minutes. […] The supernatants were collected, and the IRAK4 protein levels were respectively detected by Western blot (WB). The total protein concentration in the cell lysate supernatant was determined using a BCA protein quantification kit (NCM). Based on the total protein concentration detected by BCA, the samples were adjusted to 2 μg/μL using cell lysis buffer and 5×SDS-PAGE protein loading buffer (Beyotime), heated at 95°C for 5 minutes in a metal bath, and then placed on ice for an ice bath for 5 minutes before being used as the loading samples for Western blot analysis. Protein electrophoresis was performed using a 10% SDS-PAGE gel with a loading volume of 20 μL (total protein 40 μg) and Tris-SDS electrophoresis at a constant voltage of 80 V. After electrophoresis, the proteins on the gel were transferred to a 0.2 μm PVDF membrane (Immobilon) using a semi-dry transfer method at 0.5 A and 20 V for 60 minutes. After transfer, the membrane was placed in 5% skimmed milk and incubated at rt for 2 hours. After blocking, the PVDF membrane was incubated with primary antibody against IRAK4 (Abcam) at 4°C overnight. […] The color development and protein band imaging were performed using a chemiluminescence imaging system ([…] Technology Co., Ltd.). The protein bands were analyzed for grayscale values using Image J analysis software. The corrected grayscale values for each sample were calculated and then compared with those of the control group treated with DMSO alone to calculate the degradation rate.

The mark [1] stands for this setting: THP-1 cells, 24 hours of incubation, IRAK4 protein by Western blot, read-out: DC50.
Where [2] appears, read: maximum degradation rate, THP-1 cells, 24 hours of incubation, read-out: Dmax.

As a reminder, the DC50 is the concentration giving 50% degradation. One may read the Dmax as the largest share of the target that was removed. Take `Cn1c(-c2ccc(N3CCC(CCN4CCN(c5ccc(-n6cc(NC(=O)c7cccc(C(F)(F)F)n7)c(C(N)=O)n6)cc5)CC4)C3)cc2)nn(C2CCC(=O)NC2=O)c1=O` (stereo not drawn) [Compound A185]: the DC50 under setting [1] is less than 0.1 µM. Moreover, under setting [2], the Dmax lay within 40 to 60%.
On to `Cn1c(=O)n(C2CCC(=O)NC2=O)c2cccc(N3CCC(CN4CCN(c5ccc(-n6cc(NC(=O)c7cccc(C(F)(F)F)n7)c(C(N)=O)n6)cc5)CC4)C(F)(F)C3)c21` (stereo not drawn) [Compound A298, N-(3-Carbamoyl-1-(4-(4-((1-(1-(2,6-dioxopiperidin-3-yl)-3-methyl-2-oxo-2,3-dihydro-1H-benzo[d]imidazol-4-yl)-3,3-difluoropiperidin-4-yl)methyl)piperazin-1-yl)phenyl)-1H-pyrazol-4-yl)-6-(trifluoromethyl)picolinamide], for which the half-maximal degradation concentration (DC50) under setting [1] was less than 0.1 µM. In addition, the Dmax under setting [2] is more than 60%.
On the same counts, the results for `Cn1c(=O)n(C2CCC(=O)NC2=O)c2ccc(N3CCC(CN4CCN(c5ccc(-n6cc(NC(=O)c7cccc(C(F)(F)F)n7)c(C(N)=O)n6)cc5)CC4)C(F)(F)C3)cc21` (stereo not drawn) [Compound A299, N-(3-Carbamoyl-1-(4-(4-((1-(1-(2,6-dioxopiperidin-3-yl)-3-methyl-2-oxo-2,3-dihydro-1H-benzo[d]imidazol-5-yl)-3,3-difluoropiperidin-4-yl)methyl)piperazin-1-yl)phenyl)-1H-pyrazol-4-yl)-6-(trifluoromethyl)picolinamide] are less than 0.1 µM and more than 60%.
As for `Cn1c(=O)n(C2CCC(=O)NC2=O)c2cccc(N3CCC(CCN4CCN(c5ccc(-n6cc(NC(=O)c7cccc(C(F)(F)F)n7)c(C(N)=O)n6)cc5)CC4)C(F)(F)C3)c21` (stereo not drawn) [Compound A300], the DC50 was less than 0.1 µM. Moreover, for the setting “THP-1”, the Dmax is more than 60%.
With `Cn1c(=O)n(C2CCC(=O)NC2=O)c2ccc(N3CCC(CN4CCN(c5ccc(-n6cc(NC(=O)c7cccc(C(F)(F)F)n7)c(C(N)=O)n6)cc5)CC4)C3)cc21` (stereo not drawn) [Compound A304, N-(3-carbamoyl-1-(4-(4-((1-(1-(2,6-dioxopiperidin-3-yl)-3-methyl-2-oxo-2,3-dihydro-1H-benzo[d]imidazol-5-yl)pyrrolidin-3-yl)methyl)piperazin-1-yl)phenyl)-1H-pyrazol-4-yl)-6-(trifluoromethyl)picolinamide], the DC50 under setting [1] is less than 0.1 µM. Also, the Dmax under setting [2] lay in the range of 40 to 60%.
In the same order, the values of `Cn1c(=O)n(C2CCC(=O)NC2=O)c2cccc(N3CCC(CN4CCN(c5ccc(-n6cc(NC(=O)c7cccc(C(F)(F)F)n7)c(C(N)=O)n6)cc5)CC4)C3)c21` (stereo not drawn) [Compound A305, N-(3-carbamoyl-1-(4-(4-((1-(1-(2,6-dioxopiperidin-3-yl)-3-methyl-2-oxo-2,3-dihydro-1H-benzo[d]imidazol-4-yl)pyrrolidin-3-yl)methyl)piperazin-1-yl)phenyl)-1H-pyrazol-4-yl)-6-(trifluoromethyl)picolinamide] are 0.1 to 1 µM and 40 to 60%.
As for `COc1ccc(C(=O)N2CCC(CN3CCN(C(=O)c4ccc(-n5cc(NC(=O)c6cccc(C(F)(F)F)n6)c(C(N)=O)n5)cc4)CC3)C2)cc1N1CCC(=O)NC1=O` (stereo not drawn) [Compound A313, N-(3-carbamoyl-1-(4-((1-(3-(2,4-dioxotetrahydropyrimidin-1(2H)yl)-4-methoxybenzoyl)pyrrolidin-3-yl)methyl)piperazine-1-carbonyl)phenyl)-1H-pyrazol-4-yl)-6-(trifluoromethyl)picolinamide trifluoroacetate], the DC50 under setting [1] is 0.1 to 1 µM. The Dmax under setting [2] is more than 60%.
On to `CN(Cc1ccc(-n2cc(NC(=O)c3cccc(C(F)(F)F)n3)c(C(N)=O)n2)cc1)C1CC2(CCN(c3cccc4c3n(C)c(=O)n4C3CCC(=O)NC3)CC2)C1` (stereo not drawn) [Compound A315], for which the DC50 under setting [1] fell in the range of 0.1 to 1 µM. For the same compound, under “maximum degradation rate, THP-1 cells, 24 hours of incubation”, the Dmax entry is given as “A (A represents Dmax > 60%)”.
Regarding `Cn1c(=O)n(C2CCC(=O)NC2=O)c2cccc(N3CCC4(CC3)CN(CCc3ccc(-n5cc(NC(=O)c6cccc(C(F)(F)F)n6)c(C(N)=O)n5)cc3)C4)c21` (stereo not drawn) [Compound A316, N-(3-carbamoyl-1-(4-(2-(7-(1-(2,6-dioxopiperidin-3-yl)-3-methyl-2-oxo-2,3-dihydro-1H-benzo[d]imidazol-4-yl)-2,7-diazaspiro[3.5]nonan-2-yl)ethyl)phenyl)-1H-pyrazol-4-yl)-6-(trifluoromethyl)picolinamide], the DC50 under setting [1] was less than 0.1 µM. For the same compound, the Dmax under setting [2] is more than 60%.
In the same order, the values of `NC(=O)c1nn(-c2ccc(COC3CC4(CCN(CC5CCN(c6ccc(NC7CCC(=O)NC7=O)cc6F)CC5)CC4)C3)cc2)cc1NC(=O)c1cccc(C(F)(F)F)n1` (stereo not drawn) [Compound A317, N-(3-Carbamoyl-1-(4-(((7-((1-(4-((2,6-dioxopiperidin-3-yl)amino)-2-fluorophenyl)piperidin-4-yl)methyl)-7-azaspiro[3.5]nonan-2-yl)oxy)methyl)phenyl)-1H-pyrazol-4-yl)-6-(trifluoromethyl)picolinamide] are less than 0.1 µM and more than 60%.
Regarding `COc1ccc(C(=O)N2CCC3(CC2)CC(Cc2ccc(-n4cc(NC(=O)c5cccc(C(F)(F)F)n5)c(C(N)=O)n4)cc2)C3)cc1N1CCC(=O)NC1=O` [Compound A318, N-(3-Carbamoyl-1-(4-((7-(3-(2,4-dioxotetrahydropyrimidin-1(2H)-yl)-4-methoxybenzoyl)-7-azaspiro[3.5]nonan-2-yl)methyl)phenyl)-1H-pyrazol-4-yl)-6-(trifluoromethyl)picolinamide], the DC50 under setting [1] was less than 0.1 µM. Also, under setting [2], the Dmax was more than 60%.
In the same order, the values of `Cn1c(=O)n(C2CCC(=O)NC2=O)c2cccc(N3CCC4(CC3)CN(Cc3ccc(-n5cc(NC(=O)c6cccc(C(F)(F)F)n6)c(C(N)=O)n5)cc3)C4)c21` (stereo not drawn) [Compound A319, N-(3-carbamoyl-1-(4-((7-(1-(2,6-dioxopiperidin-3-yl)-3-methyl-2-oxo-2,3-dihydro-1H-benzo [d]imidazol-4-yl)-2,7-diazaspiro[3.5]nonan-2-yl)methyl)phenyl)-1H-pyrazol-4-yl)-6-(trifluoromethyl)picolinamide] are 0.1 to 1 µM and 40 to 60%.
Consider `Cn1c(=O)n(C2CCC(=O)NC2=O)c2cccc(N3CCC4(CC3)CC(NC(=O)c3ccc(-n5cc(NC(=O)c6cccc(C(F)(F)F)n6)c(C(N)=O)n5)cc3)C4)c21` (stereo not drawn) [Compound A320], for which the DC50 under setting [1] is less than 0.1 µM. In addition, under setting [2], the Dmax is more than 60%.
On the same counts, the results for `Cn1c(=O)n(C2CCC(=O)NC2=O)c2cccc(N3CCC4(CC3)CN(C(=O)Cc3ccc(-n5cc(NC(=O)c6cccc(C(F)(F)F)n6)c(C(N)=O)n5)cc3)C4)c21` (stereo not drawn) [Compound A321, N-(3-Carbamoyl-1-(4-(2-(7-(1-(2,6-dioxopiperidin-3-yl)-3-methyl-2-oxo-2,3-dihydro-1H-benzimidazol-4-yl)-2,7-diazaspiro[3.5]nonan-2-yl)-2-oxoethyl)phenyl)-1H-pyrazol-4-yl)-6-(trifluoromethyl)picolinamide] are less than 0.1 µM and more than 60%.
For the compound `Cn1c(=O)n(C2CCC(=O)NC2=O)c2cccc(N3CCC4(CC3)CC(NCc3ccc(-n5cc(NC(=O)c6cccc(-c7ccn[nH]7)n6)c(S(N)(=O)=O)n5)cc3)C4)c21` (stereo not drawn) [Compound A322, N-(1-(4-(((7-(1-(2,6-dioxopiperidin-3-yl)-3-methyl-2-oxo-2,3-dihydro-1H-benzo[d]imidazol-4-yl)-7-azaspiro[3.5]nonan-2-yl)amino)methyl)phenyl)-3-sulfamoyl-1H-pyrazol-4-yl)-6-(1H-pyrazol-5-yl)picolinamide], the DC50 under setting [1] is less than 0.1 µM. The Dmax under setting [2] is more than 60%.
